PMC8287944, “5-Fluorouracil blocks quorum-sensing of biofilm-embedded methicillin-resistant Staphylococcus aureus in mice” (Nucleic Acids Research, 2021)

Assays:
[1] = system: AI-2 production by HEK-293AI2 cells expressing MTAN and LuxS; assay: HEK-293AI2 / V. harveyi (MM32) AI-2 detection platform (AI-2 production by engineered human cells); type: cell-based, human cells; MTAN and LuxS derived from E. coli; conditions: Homo sapiens, 24 h, HEK-293AI2 cells exposed 24 h; AI-2 in supernatant read by V. harveyi MM32 bioluminescence
Method: LuxS (MF688636) and MTAN (MF688635) transgenes derived from E. coli were codon-optimized for stable expression in mammalian cells. For the generation of double stable HEK-293-derived cell line HEK-293AI2 transgenic for simultaneous constitutive PhEFIα-driven MTAN and PhCMV-driven LuxS-eYFP expression, 250,000 cells were first transfected with 2000 ng of pFS168 (PhEFIα-MTAN-pA) and selected in culture medium containing 20 μg/ml blasticidin (cat. no. ant-bl-1; InvivoGen, San Diego, CA, USA) for two weeks. […] After 17 days of selection in medium containing 200 μg/ml (w/v) zeocin (cat. no. ant-zn-1; Invivogen, San Diego, CA, USA) and 20 μg/ml blasticidin, resistant monoclonal cells (HEK-293sFS26cx) were obtained by limiting dilution cloning and screened for AI-2 activity in their supernatants. […] The cell line was regularly tested for the absence of mycoplasma.
20 μl of HEK-293AI2 cells (10^4 cells per well) were resuspended in 20 μl Dulbecco's modified Eagle's medium (DMEM; Thermo Fisher, Basel, Switzerland, low glucose, without phenol red, cat. no. 11880–028) supplemented with 4 mM L-glutamine (Thermo Fisher, Basel, Switzerland, cat. no. 25030-024), 30 μg/ml kanamycin and 1% FCS and seeded into a poly-L-lysine-coated Black Greiner clear-bottom 384-well plate (cat. no. 3845; Corning, New York, USA) using a Multidrop Combi Reagent Dispenser (cat. no. 5840300; Thermo Fisher, Basel, Switzerland). Cells were incubated for 20 h and then 20 nL of individual compounds (stock solution in 5 mM in DMSO) or controls (stock solutions of novobiocin, 10 mM in DMSO; staurosporin, 20 mM in DMSO) were transferred with Echo 550 liquid handler (Labcyte, San Jose, CA, USA) into the plate.
Compound-treated cells were cultivated for 24 hours and the cell culture supernatants (10 μl) were transferred to dry black polystyrene 384-well plates (Corning, New York, USA, cat. no. 3571). The AI-2 activity was quantified by adding 40 μl per 384-well of V. harveyi MM32 AI-2 reporter strain, diluted 1:500 in AB-Medium from a stationary overnight culture grown in Luria Marine (LM)-medium containing 20 g of NaCl, 10 g of Bacto Tryptone (Difco Laboratories), and 5 g of yeast extract (BBL) ([25]). Plates were sealed with BREATHseal™ (cat. no. 7.676 050; Greiner Bio-One, Frickenhausen, Germany) and incubated for 4 h at 30°C and 200 rpm on a Multitron Pro shaker (Infors, Bottmingen, Switzerland). Bioluminescence was measured on an Envision 2104 Multilabel plate reader (Perkin Elmer, Waltham, USA) with 1 s integration time. […] The initial hit inclusion criteria were a toxicity score of less than 50% and an AI-2 activity reduction below the average of all compound activity three times the standard deviation (-49.39% of activity).
Figure 2. Cell-based primary screen for AI-2 biosynthesis inhibitors. (A) Detailed assay protocol of the primary screen using engineered mammalian cells to identify inhibitors of quorum sensing. […] Aliquots of 10 μl of culture supernatants were transferred to black-bottomed assay plates and mixed with 40 μl of V. harveyi MM32 (AI-2 biosensor). AI-2-induced bioluminescence was measured 4 h later and normalized against the controls. In a secondary screen, the dose-response relationships of hit compounds are analyzed. To simultaneously assess effects on cell viability, compound-treated cells were supplemented with PrestoBlue and incubated for 1 h prior to resorufin fluorescence quantification. (B) Z’-evaluation of the AI-2 inhibitor assay.

V. harveyi (BB170) = assay: V. harveyi BB170 bioluminescence (5 h); type: cell-based, Vibrio harveyi; conditions: V. harveyi BB170, 5 h
Method: The test strain V. harveyi BB170 was grown overnight in Luria Marine (LM)-medium ([25]). The culture was 1:500 diluted in AB-medium (0.3 M NaCl, 10 mM potassium phosphate, 1 mM L-arginine, […], 1% glycerol) the next day, and then challenged with various chemical compounds. After 5 h of shaking at 200 rpm at 30°C, the bioluminescence of BB170 was quantified on a GENios Pro plate reader (Tecan, Männedorf, Switzerland).
Figure 3. Bioactivity of hit candidates against Vibrio harveyi. Effect on bacterial growth. V. harveyi (BB170) was grown in the presence of individual compounds (A–H) for 5 h and the bioluminescence (green circles) was quantified. After a total of 24 h, bacterial growth (+) was evaluated by measuring the optical density (OD600). The gray translucent background in (C) represents the narrow range within which the compound reduces bioluminescence without affecting growth.

MRSA ATCC 43300 [2] = assay: MRSA 43300 growth; type: cell-based, Staphylococcus aureus; conditions: 0.1 μM 5-FU
Method: (§1) Figure 4. Bioactivity of 5-FU against MRSA ATCC 43300. (A) Quorum sensing-associated AI-2 activity of MRSA 43300 grown for 3 h with different 5-FU concentrations. (B) Effect of different 5-FU concentrations on MRSA 43300 growth. (C) Interference with biofilm formation. (D) Effect on adherent MRSA 43300. Data points represent three biological replicates expressed as mean ± SD (**P < 0.01; ***P < 0.001; ****P < 0.0001).

MRSA ATCC 43300 [3] = assay: Adherent MRSA quantification (CFU plating); type: cell-based, Staphylococcus aureus; conditions: 0.1 μM 5-FU, 24 h
Method: To quantify the amount of adherent bacteria, 2 – 3 × 10^5 CFU/ml MRSA were grown for 24 h in the presence of different 5-FU concentrations. After incubation under static conditions at 37°C, the plate was washed twice with PBS. Adherent bacteria were removed with 100 μl PBS and appropriate dilutions were plated on Mueller-Hinton agar (Becton Dickinson AG, Allschwil, Switzerland) plates overnight at 37°C. Three independent experiments were performed, each performed in triplicate, and the mean values were calculated. Dimethyl sulfoxide (DMSO) was used as a control.
as §1

MRSA ATCC 43300 [4] = assay: Biofilm formation (Crystal Violet); type: cell-based, Staphylococcus aureus; conditions: 0.1 μM 5-FU, 24 h
Method: To quantify the formation of bacterial biofilms, bacteria were grown for 24 h in the presence of potential inhibitors in 96-well polystyrene plates. The plates were then washed three times with distilled water. Remaining cells were stained with 0.1% Crystal Violet solution (5% methanol, 5% isopropanol) and further washed to remove excess dye. Crystal Violet was redissolved in 20% acetic acid solution and the absorbance of the solution was measured at 600 nm.
as §1

## O=c1[nH]cc(F)c(=O)[nH]1 [5-Fluorouracil]
[1]
  IC50: 460 nM
V. harveyi (BB170)
  Effect on V. harveyi bioluminescence: reduced the bioluminescence
MRSA ATCC 43300 [2]
  Bacterial growth of MRSA: significantly decreased bacterial growth
MRSA ATCC 43300 [3]
  Number of adherent MRSA: reduced the number of adherent MRSA
MRSA ATCC 43300 [4]
  Biofilm formation of MRSA: significantly decreased biofilm formation
